Measured values as given in patent publication US20250302833A1, “PHARMACEUTICAL COMPOSITION FOR TREATING OR PREVENTING CYSTIC DISEASE” (CHUGAI SEIYAKU KABUSHIKI KAISHA, priority 2022, published 2025).

What was measured:
[1] = tested on: pcy mice (naturally occurring PKD model); test: Suppression of increase in renal volume and decrease in renal function in pcy mice; format: in vivo, mouse; settings: compared to tolvaptan
Method: The pcy mice, a naturally occurring PKD model, were used to evaluate the effects of tolvaptan and compound 4 in Test Example 1 on (a) renal volume, (b) blood urea nitrogen (UN) concentration, (c) body weight, and (d) urine volume in pcy mice.
The pcy mice (5 weeks of age at the start of this test) were grouped into 3 groups of 13 mice each. Compound 4 or tolvaptan was administered to each of the test compound administration groups. The administration period was 5 weeks. Compound 4 was administered subcutaneously once daily and tolvaptan was administered subcutaneously at a weekly pace. Compound 4 was administered at 33-40 mg/kg per dose and tolvaptan was administered at 25-30 mg/kg per dose. Compound 4 and tolvaptan were administered after dissolved in 50% DMSO/50% glycerol. A group of mice of the parental line was provided as a normal control group (Normal Control) (N=7). The 50% DMSO/50% glycerol was administered to the normal control group and the Vehicle group of pcy mice at 1 mL/kg.
The left renal volume (renal volume (mL)) of mice was calculated by the following formula using echography 5 weeks after the start of administration of the test compound, as shown in FIG. 3a.
After that, blood was collected from the abdominal vena cava, plasma was collected, and euthanasia treatment was performed. Blood urea nitrogen (UN) concentration (Plasma UN (mg/L)) was measured using L-type Waco UN (Fujifilm Wako Pure Chemical Corporation), as shown in FIG. 3b.
(§1) In addition, the body weight (Body weight (g)) of mice was measured every 7 days after the start of administration of the test compound, as shown in FIG. 3c. Furthermore, the volume of urine (Urine volume (mL/day)) was calculated from the specific gravity and measured weight of urine 5 weeks after the start of administration of the test compound, as shown in FIG. 3d.

[2] = tested on: PC1 conditional knockout mice (PKD model); test: Suppression of increase in renal volume and decrease in renal function in PC1 conditional knockout mice; format: in vivo, mouse
Method: The PC1 conditional knockout mice, a PKD model, were used to evaluate the effects of tolvaptan and compound 4 in Test Example 1 on (a) renal volume, (b) body weight, and (c) urine volume in PC1 conditional knockout mouse.
Tamoxifen was orally administered to PC1 conditional knockout mice at a dose of 3 mg/kg for 3 days from day 21 after birth. The PC1 conditional knockout mice (5 weeks of age at the start of this test) were grouped into 3 groups of 15 mice each. Compound 4 or tolvaptan was administered as a single agent to the test compound administration group. The administration period was 16 weeks, and they were administered subcutaneously once daily. Compound 4 was administered at 33-40 mg/kg per dose and tolvaptan was administered at 25-30 mg/kg per dose. Compound 4 and tolvaptan were administered after dissolved in 50% DMSO/50% glycerol. A group of mice to which tamoxifen was not administered was provided as a normal control group (Normal Control) (N=7). The 50% DMSO/50% glycerol was administered to the normal control group and the Vehicle group of PC1 conditional knockout mice at 1 mL/kg.
The left renal volume (renal volume (mL)) of mice was calculated by the following formula using echography 16 weeks after the start of administration of the test compound.
as §1, with “After that, euthanasia treatment was performed. In” for “In”, “compound.” for “compound, as shown in FIG. 3c.”, “16” for “5”, “compound.” for “compound, as shown in FIG. 3d.”

[3] = tested on: primary cells from kidney tissues of human ADPKD patients; test: Inhibition of three-dimensional cyst formation using primary cells from kidney tissue of human ADPKD patient; format: cell-based; settings: 168 h, test compound 30 μM, forskolin + ITS stimulation, 7 days 3D culture, average N=3, read-out: Inhibition rate (%) of cyst formation
Method: Primary cells were isolated from kidney tissues of human ADPKD patients. Under two-dimensions, the isolated cells were cultured for 2 days using DMEM/F-12 (Thermo Fisher Scientific, Inc.) supplemented with 10% FBS. Subsequently, three-dimensional culture was performed for 7 days using 3D Ready Atelocollagen (KOKEN CO., LTD.). During three-dimensional culture, 50 µM forskolin (Sigma-Aldrich Co. LLC) and ITS liquid media supplements (Sigma-Aldrich Co. LLC) were added as stimulating agents to some of the wells to form cysts, and a test compound was added at the final concentration of 30 μM. The test compound was also added to other wells at the final concentration of 30 μM. After 7 days of three-dimensional culture, it was fixed with 4% paraformaldehyde (Thermo Fisher Scientific, Inc.), and nucleic acid staining and cell membrane staining were performed with Hoechst 33342 (Thermo Fisher Scientific, Inc.) and CellLight Plasma Membrane-RFP, BacMam 2.0 (Thermo Fisher Scientific, Inc.). Three-dimensional imaging and volume analysis were performed using Operetta CLS and image analysis software Harmony (PerkinElmer Japan G.K.). The inhibition rate was determined by the following formula.

Urine volume ([1]; 5 weeks after start of administration): no increase in urine volume
Urine volume ([2]; 16 weeks after start of administration, compared to tolvaptan): no increase in urine volume
SMILES: CCCN([C@H]1CC[C@H](C(=O)[O-])CC1)S(=O)(=O)c1cccc(C(=O)Nc2sc3c(c2C(=O)Nc2ccc(CCCc4ccc(C(=O)[O-])cc4)cc2)CCCC3)c1.[Na+].[Na+] [Compound 4, Disodium; 4-[3-[4-[[2-[[3-[(4-carboxylatocyclohexyl)-propylsulfamoyl]benzoyl]ami-no]-4,5,6,7-tetrahydro-1-benzothiophene-3-carbonyl]amino]phenyl]pro-pyl]benzoic acid]
Body weight (weight loss) ([1]; 5 weeks administration): less weight loss
Suppression effect on increase in renal volume ([1]; 33-40 mg/kg s.c. once daily, 5 weeks, left renal volume by echography): same degree of suppression effects
Suppression effect on decrease in renal function (blood urea nitrogen) ([1]; 33-40 mg/kg s.c. once daily, 5 weeks, plasma UN): same degree of suppression effects
Body weight (weight loss) ([2]; 16 weeks administration, compared to tolvaptan): less weight loss
Suppression effect on decrease in renal function ([2]; 33-40 mg/kg s.c. once daily, 16 weeks): suppression effect
Suppression effect on increase in renal volume ([2]; 33-40 mg/kg s.c. once daily, 16 weeks, left renal volume by echography): suppression effect
inhibition at 30 µM [3]: 94.4%
